Results taken from patent US9458198B1, “Cyclic peptide-based NPR-B agonists” (priority 2009, dated 2016).
pEC50: −log10 of the molar value. Where a SMILES comes first, the peptide text is derived from it. Bridges are numbered along the chain shown (N, C = ends). [ ]: non-standard residue; d: D form.

Target: T1, NPR-B (Homo sapiens, UniProt P20594)
T1 construct: a functional assay using endogenously NPR-B expressing GTM-3 cells; endogenous in cells; host or cells: GTM-3 (transformed human trabecular meshwork cells)
T1 sequence (P20594 23-1047): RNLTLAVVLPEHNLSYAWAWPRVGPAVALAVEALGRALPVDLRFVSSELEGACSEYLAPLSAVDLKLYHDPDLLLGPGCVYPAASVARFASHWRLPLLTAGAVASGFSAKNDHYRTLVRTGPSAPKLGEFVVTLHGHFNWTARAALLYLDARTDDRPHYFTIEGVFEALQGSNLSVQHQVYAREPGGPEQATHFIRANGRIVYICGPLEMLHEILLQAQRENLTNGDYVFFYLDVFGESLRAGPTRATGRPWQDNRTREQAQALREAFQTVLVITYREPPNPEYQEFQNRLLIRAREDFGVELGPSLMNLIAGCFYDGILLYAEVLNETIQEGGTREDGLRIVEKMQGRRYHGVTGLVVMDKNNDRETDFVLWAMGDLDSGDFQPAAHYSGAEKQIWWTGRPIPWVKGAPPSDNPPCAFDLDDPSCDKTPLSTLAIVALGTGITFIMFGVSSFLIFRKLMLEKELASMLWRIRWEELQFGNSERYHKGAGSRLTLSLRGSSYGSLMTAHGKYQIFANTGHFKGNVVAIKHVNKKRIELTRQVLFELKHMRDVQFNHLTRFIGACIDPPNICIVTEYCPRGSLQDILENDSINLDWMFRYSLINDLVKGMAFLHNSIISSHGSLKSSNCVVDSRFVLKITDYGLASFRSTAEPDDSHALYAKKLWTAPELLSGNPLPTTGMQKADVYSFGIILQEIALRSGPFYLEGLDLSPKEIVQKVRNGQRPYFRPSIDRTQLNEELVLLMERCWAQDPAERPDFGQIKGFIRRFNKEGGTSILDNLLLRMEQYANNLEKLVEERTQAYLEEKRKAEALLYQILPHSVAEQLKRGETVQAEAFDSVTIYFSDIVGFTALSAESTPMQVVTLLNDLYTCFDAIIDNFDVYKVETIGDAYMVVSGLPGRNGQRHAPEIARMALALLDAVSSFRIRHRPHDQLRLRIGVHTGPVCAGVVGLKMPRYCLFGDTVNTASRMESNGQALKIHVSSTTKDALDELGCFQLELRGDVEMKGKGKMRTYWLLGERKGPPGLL
Experiment: NPR-B induced production of cyclic GMP in GTM-3 cells
Format: cell-based
Conditions: Activity (group): NPR-B activation, EC50 and Emax (CNP = 100%), GTM-3 cells; group needs both EC50 and Emax criteria, checked A then B then C
Description: The efficacy and potency of compounds to activate NPR-B were evaluated in a functional assay using endogenously NPR-B expressing GTM-3 cells (Pang et al. 1994, Curr Eye Res 13:51-63). In this assay the dose dependent production of cyclic GMP (cGMP) is determined and Emax (maximum activation) and EC50 values are calculated.
The cell culture medium is aspirated and each well is washed with 200 μl DMEM/Ham's F12=Medium (Gibco). Then, 200 μl Medium supplemented with 1 mM IBMX (3-Isobutyl-1-methyl-xanthin, Sigma) is added to each well and incubated for 15 min. at room temperature.
Final compound concentrations are in the range from 45 μM to 20 nM.

| SMILES | pEC50 |
| --- | --- |
| CC[C@H](C)[C@@H]1NC(=O)[C@H](CCCNC(=N)N)NC(=O)[C@H](CC(=O)O)NC(=O)[C@H](CC(C)C)NC(=O)[C@@H]2CCCN2C(=O)[C@H](CC(C)C)NC(=O)CNC(=O)[C@H](Cc2ccccc2)NC(=O)[C@@H](Cc2c[nH]cn2)NC(=O)[C@@H](NC(=O)[C@@H](N)CCSC)CSSC[C@@H](C(N)=O)NC(=O)[C@H](CO)NC1=O [compound 41] (H-MC[dH]FGLPLDRISC-NH2; disulfide 2-13) | > 5.30 |

Same assay, conditions: GTM-3 cells; group needs both EC50 and Emax criteria, checked A then B then C; read-out: Activity (group): NPR-B activation, EC50 and Emax (CNP = 100%)

| SMILES | pEC50 |
| --- | --- |
| CC[C@H](C)[C@@H]1NC(=O)[C@H](CCCNC(=N)N)NC(=O)[C@H](CC(=O)O)NC(=O)[C@H](CC(C)C)NC(=O)[C@H](CCCCN)NC(=O)[C@H](CC(C)C)NC(=O)CNC(=O)[C@H](Cc2ccccc2)NC(=O)[C@H](Cc2c[nH]cn2)NC(=O)[C@@H](NC(=O)[C@@H](N)CCSC)CSSC[C@@H](C(=O)N[C@@H](CC(C)C)C(=O)N[C@@H](CCCNC(=N)N)C(N)=O)NC(=O)[C@H](CO)NC1=O [compound 23] (H-MCHFGLKLDRISCLR-NH2; disulfide 2-13) | > 5.30 |
| CC[C@H](C)[C@@H]1NC(=O)[C@H](CCCNC(=N)N)NC(=O)[C@H](CC(=O)O)NC(=O)[C@H](CC(C)C)NC(=O)[C@H](CCCCN)NC(=O)[C@H](CC(C)C)NC(=O)CNC(=O)[C@H](Cc2ccccc2)NC(=O)[C@H](Cc2c[nH]cn2)NC(=O)[C@@H](NC(=O)[C@@H](N)CCSC)CSSC[C@@H](C(=O)N[C@@H](CO)C(=O)N[C@@H](CCCNC(=N)N)C(N)=O)NC(=O)[C@H](CO)NC1=O [compound 24] (H-MCHFGLKLDRISCSR-NH2; disulfide 2-13) | > 5.30 |
| CC[C@H](C)[C@@H]1NC(=O)[C@H](CCCNC(=N)N)NC(=O)[C@H](CC(=O)O)NC(=O)[C@H](CC(C)C)NC(=O)[C@H](CCCCN)NC(=O)[C@H](CC(C)C)NC(=O)CNC(=O)[C@H](Cc2ccccc2)NC(=O)[C@H](Cc2c[nH]cn2)NC(=O)[C@@H](NC(=O)[C@@H](N)CCSC)CSSC[C@@H](C(=O)N[C@@H](Cc2c[nH]cn2)C(=O)N[C@@H](CCCNC(=N)N)C(N)=O)NC(=O)[C@H](CO)NC1=O [compound 25] (H-MCHFGLKLDRISCHR-NH2; disulfide 2-13) | > 4.82 |
| CC[C@H](C)[C@@H]1NC(=O)[C@H](CCCNC(=N)N)NC(=O)[C@H](CC(=O)O)NC(=O)[C@H](CC(C)C)NC(=O)[C@H](CCCCN)NC(=O)[C@H](CC(C)C)NC(=O)CNC(=O)[C@H](Cc2ccccc2)NC(=O)[C@H](Cc2c[nH]cn2)NC(=O)[C@@H](NC(=O)[C@@H](N)CCSC)CSSC[C@@H](C(=O)N[C@@H](Cc2ccc(O)cc2)C(=O)N[C@@H](CO)C(N)=O)NC(=O)[C@H](CO)NC1=O [compound 26] (H-MCHFGLKLDRISCYS-NH2; disulfide 2-13) | > 4.82 |
| CC[C@H](C)[C@@H]1NC(=O)[C@H](CCCNC(=N)N)NC(=O)[C@H](CC(=O)O)NC(=O)[C@H](CC(C)C)NC(=O)[C@H](CCCCN)NC(=O)[C@H](CC(C)C)NC(=O)CNC(=O)[C@H](Cc2ccccc2)NC(=O)[C@H](Cc2c[nH]cn2)NC(=O)[C@@H](NC(=O)[C@@H](N)CCSC)CSSC[C@@H](C(=O)N[C@@H](Cc2ccc(O)cc2)C(=O)N[C@@H](CC(N)=O)C(N)=O)NC(=O)[C@H](CO)NC1=O [compound 27] (H-MCHFGLKLDRISCYN-NH2; disulfide 2-13) | > 5.30 |
| CC[C@H](C)[C@@H]1NC(=O)[C@H](CCCNC(=N)N)NC(=O)[C@H](CC(=O)O)NC(=O)[C@H](CC(C)C)NC(=O)[C@H](CCCCN)NC(=O)[C@H](CC(C)C)NC(=O)CNC(=O)[C@H](Cc2ccccc2)NC(=O)[C@H](Cc2c[nH]cn2)NC(=O)[C@@H](NC(=O)[C@@H](N)CCSC)CSSC[C@@H](C(=O)N[C@@H](Cc2ccc(O)cc2)C(=O)N[C@@H](Cc2c[nH]cn2)C(N)=O)NC(=O)[C@H](CO)NC1=O [compound 28] (H-MCHFGLKLDRISCYH-NH2; disulfide 2-13) | > 5.30 |
| CC[C@H](C)[C@@H]1NC(=O)[C@H](CCCNC(=N)N)NC(=O)[C@H](CC(=O)O)NC(=O)[C@H](CC(C)C)NC(=O)[C@H](CCCCN)NC(=O)[C@H](CC(C)C)NC(=O)CNC(=O)[C@H](Cc2ccc(Cl)cc2)NC(=O)[C@H](Cc2c[nH]cn2)NC(=O)[C@@H](NC(=O)[C@@H](N)CCSC)CSSC[C@@H](C(N)=O)NC(=O)[C@H](CO)NC1=O [compound 29] | > 4.82 |
| CC[C@H](C)[C@@H]1NC(=O)[C@H](CCCNC(=N)N)NC(=O)[C@H](CC(=O)O)NC(=O)[C@H](CC(C)C)NC(=O)[C@H](CCCCN)NC(=O)[C@H](CC(C)C)NC(=O)CNC(=O)[C@H](Cc2ccccc2)NC(=O)CCCNC(=O)[C@@H](NC(=O)[C@@H](N)CCSC)CSSC[C@@H](C(N)=O)NC(=O)[C@H](CO)NC1=O [compound 32] | > 4.82 |
| CC[C@H](C)[C@@H]1NC(=O)[C@H](CCCNC(=N)N)NC(=O)[C@H](CC(=O)O)NC(=O)[C@H](CC(C)C)NC(=O)[C@H](CCCCN)NC(=O)[C@H](CC(C)C)NC(=O)[C@@H](C)NC(=O)[C@H](Cc2ccccc2)NC(=O)CNC(=O)[C@@H](NC(=O)[C@@H](N)CCSC)CSSC[C@@H](C(N)=O)NC(=O)[C@H](CO)NC1=O [compound 34] (H-MCGF[dA]LKLDRISC-NH2; disulfide 2-13) | > 5.30 |
| CC[C@H](C)[C@@H]1NC(=O)[C@H](CCCNC(=N)N)NC(=O)[C@H](CC(=O)O)NC(=O)[C@H](CC(C)C)NC(=O)[C@H](CCCCN)NC(=O)[C@H](CC(C)C)NC(=O)[C@@H](C)NC(=O)[C@H](Cc2ccccc2)NC(=O)[C@@H](Cc2c[nH]cn2)NC(=O)[C@@H](NC(=O)[C@@H](N)CCSC)CSSC[C@@H](C(N)=O)NC(=O)[C@H](CO)NC1=O [compound 35] | > 5.30 |
| CC[C@H](C)[C@@H]1NC(=O)[C@H](CCCNC(=N)N)NC(=O)[C@H](CC(=O)O)NC(=O)[C@H](CC(C)C)NC(=O)[C@H](CCCCN)NC(=O)[C@H](CC(C)C)NC(=O)CNC(=O)[C@H](Cc2ccccc2)NC(=O)[C@H]2CCCN2C(=O)[C@@H](NC(=O)[C@@H](N)CCSC)CSSC[C@@H](C(N)=O)NC(=O)[C@H](CO)NC1=O [compound 37] | > 5.30 |
| CC[C@H](C)[C@@H]1NC(=O)[C@H](CCCNC(=N)N)NC(=O)[C@H](CC(=O)O)NC(=O)[C@H](CC(C)C)NC(=O)[C@H](CCCCN)NC(=O)[C@H](CC(C)C)NC(=O)CNC(=O)[C@H](Cc2ccccc2)NC(=O)[C@@H](C)NC(=O)[C@@H](NC(=O)[C@@H](N)CCSC)CSSC[C@@H](C(N)=O)NC(=O)[C@H](CO)NC1=O [compound 38] | > 5.30 |
| CC[C@H](C)[C@@H]1NC(=O)[C@H](CCCNC(=N)N)NC(=O)[C@H](CC(=O)O)NC(=O)[C@H](CC(C)C)NC(=O)[C@H](CCCCN)NC(=O)[C@H](CC(C)C)NC(=O)CNC(=O)[C@H](Cc2ccccc2)NC(=O)[C@@H](CO)NC(=O)[C@@H](NC(=O)[C@@H](N)CCSC)CSSC[C@@H](C(N)=O)NC(=O)[C@H](CO)NC1=O [compound 39] | > 5.30 |
| CC[C@H](C)[C@@H]1NC(=O)[C@H](CCCNC(=N)N)NC(=O)[C@H](CC(=O)O)NC(=O)[C@H](CC(C)C)NC(=O)[C@H](CCCCN)NC(=O)[C@H](CC(C)C)NC(=O)CNC(=O)[C@H](Cc2ccccc2)NC(=O)[C@@H](CC(N)=O)NC(=O)[C@@H](NC(=O)[C@@H](N)CCSC)CSSC[C@@H](C(N)=O)NC(=O)[C@H](CO)NC1=O [compound 40] | > 5.30 |
| CC[C@H](C)[C@@H]1NC(=O)[C@H](CCCNC(=N)N)NC(=O)[C@H](CC(=O)O)NC(=O)[C@H](CC(C)C)NC(=O)[C@H](CCCNC(=N)N)NC(=O)[C@H](CC(C)C)NC(=O)CNC(=O)[C@H](Cc2ccccc2)NC(=O)[C@@H](Cc2c[nH]cn2)NC(=O)[C@@H](NC(=O)[C@@H](N)CCSC)CSSC[C@@H](C(N)=O)NC(=O)[C@H](CO)NC1=O [compound 42] (H-MC[dH]FGLRLDRISC-NH2; disulfide 2-13) | > 5.30 |
| CC[C@H](C)[C@@H]1NC(=O)[C@H](CCCNC(=N)N)NC(=O)[C@H](CC(=O)O)NC(=O)[C@H](CC(C)C)NC(=O)[C@H](CCCCN)NC(=O)[C@H](CC(C)C)NC(=O)CNC(=O)[C@H](Cc2ccccc2)NC(=O)[C@@H](Cc2ccccc2)NC(=O)[C@@H](NC(=O)[C@@H](N)CCSC)CSSC[C@@H](C(N)=O)NC(=O)[C@H](CO)NC1=O [compound 45] | > 4.82 |
